Measured values from patent publication US9241928B2, “Antimicrobial compounds” (The General Hospital Corporation, priority 2009, dated 2016).

How the values were obtained:
[1] = tested on: MRSA infection in Caenorhabditis elegans; assay: MRSA infection assay in C. elegans (liquid); type: in vivo; conditions: 6.25 and 12.5 μg/ml, 5 days
Excerpt: To screen/test candidate compounds for their efficacy against Methicillin-resistant Staphylococcus aureus (MRSA) using Caenorhabditis elegans (C. elegans), a liquid high throughput screening assay was developed. In contrast to the Enterococcus faecalis infection assay, where worms are pre-infected with E. faecalis on agar prior to the start of the screening assay and then infected worms are transferred to microtiter plates using the COPAS BioSort robot, the infection of worms with MRSA occurred directly in the liquid medium. This liquid infection protocol with MRSA was developed because the COPAS BioSort, the large particle sorter used to dispense worms into multiwell plates, is a pressurized system that can generate aerosols. Because MRSA is a potentially dangerous pathogen for immune competent individuals, sorting MRSA-infected worms in the COPAS BioSort was deemed to be potentially hazardous.
The MRSA infection assay was carried out by incubating C. elegans with three MRSA strains (i.e., USA100, USA400 and MW2) in 96 or 384-well microtiter plates and assessing whether worms were live or dead after a 5 day incubation.
The MRSA infection assay was performed as follows: Worms were grown on agar using non-pathogenic E. coli as a food source until they reached the L4/young adult stage. A small volume of M9 buffer was added to the agar plates to float worms gently off the food source. The worms were then transferred into a large conical tube and washed 2 times by allowing worms to settle, aspirating the supernatant and adding fresh M9 buffer. 15 worms were then transferred using a COPAS BioSort large particle sorter into a 96-well plate containing […] of M9. […] After the worms were stained for 18 hours, images of the plates were acquired in bright field and red fluorescence channels using a Molecular Devices Discovery-1 or ImageXpress automated microscopy system. The total number of worms was counted in the bright field image and the number of dead animals are determined by positive SYTOX staining. […]

[2] = tested on: C. elegans infected with E. faecalis; assay: Dose response time courses in the C. elegans-E. faecalis infection assay; type: in vivo, Caenorhabditis elegans; conditions: Effective Concentration: survival significantly different from mock-treated, p-value <0.05, logrank; read-out: EC
Protocol: glp-4(bn2); sek-1 (km4) mutant worms were grown to gravid adult stage. 1,000 worms at the L1 stage were grown for 5.2 days at 15° C. on 9-cm plates of SK agar media spread with a lawn of E. coli strain HB101. Embryos from the gravid adults were isolated by a previously described hypochlorite method (see Tan et al., (1999) Proc. Natl. Acad. Sci. USA 96, 715-720) and hatched at 15° C. for 2 days. Approximately 4,500 of the Ll hatchlings were grown on each 9-cm plate of SK-NS agar (SK media with 62.5 U/ml nystatin and 100 μg/ml streptomycin) and with lawns of E. coli HB101. These worms were grown at 25° C. for 52 hours to generate sterile, young adults.
A culture of E. faecalis MMH594 was grown in BHI broth (BD Difco) with 80 μg/ml kanamycin at 37° C. for 6 hours and 100 μl of the culture were spread onto each 9-cm plate of BHI agar containing 80 μg/mlkanamycin. Lawns of E. faecalis were grown at 25° C. for 16 hours and transferred to 15° C. for 8 hours.
Sterile adult worms were resuspended in M9 buffer and washed twice with M9 in a 1:10 ratio to remove E. coli. 8,000 worms were pipetted onto each lawn of E. faecalis and incubated 15 hours at 15° C. After infection, the worms were resuspended in M9 and used as described below. 384-well plates (Corning #3712) were filled with 55 μl media (see below) using a Thermo Scientific MULTIDROP Combi reagent dispenser. 0.3 μl of a candidate compound in DSMO were pin transferred into each well using a CyBio CYBI-Well vario transfer system. The plates were agitated using an Eppendorf MIXMATE at 1,800 rpm for 15 seconds. Using the Union Biometrica Complex Object Parametric Analyzer and Sorter (COPAS) BIOSORT worm sorter according to manufacturer's protocols, 15 of the infected worms were transferred to each well in a total volume of approximately 15 μl. Total volume per well is 70 μl/well with a final composition of the media being 20% BHI, […], 80 μg/ml kanamycin, 62.5 U/ml nystatin, 1% DMSO, and 19% sheath solution (Union Biometrica Part #300-5101-000). Plates were vortexed for 5 seconds, centrifuged at 1000×g for 10 seconds, and sealed with gas permeable membranes (BREATHEASY Diversified). Plates were placed in a single layer on the top shelves in a 26.3° C. incubator at 85% relative humidity (RH) and incubated without agitation for 5 days.
The dose dependence of certain antimicrobial compounds identified by the assay above were studied. These compounds were purchased in a larger amount from commercial sources. For each of these compounds, an infection assay was performed essentially as described above at different concentrations except that SYTOX staining was not used. Instead, bright-field images of the wells were acquired at daily time points and scored manually for worm survival by analyzing worm body positioning. […] All compounds used in this assays were confirmed for their identity and purity by liquid chromatography/mass spectrometry.

## NNc1ccc2c(Cl)cc(Cl)c(O)c2n1 [Compound 11]
[1]
  survival of MRSA-infected worms (FIG. 4): resulted in survival of MRSA-infected worms
[2]
  minimal effective concentration: 0.2 µg/mL
